Measured values from PubChem BioAssay AID1347040 (Sanford-Burnham Center for Chemical Genomics, 2019).
Calls of active or inactive are those of the source.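 How the source made its calls: active means IC50 at or below 20 µM (some results past the limit were not filed as active); inactive means the rest.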

What follows are molecules tested against Fatty acid synthase (Homo sapiens) (UniProt P49327) (assay: potency against FAS-TE enzyme – biochemical, fluorescence intensity, OMFH substrate, dose response (AID 1347040)). Settings: recombinant FAS-TE, OMFH fluorogenic substrate.
Fatty acid synthase (Homo sapiens), sequence (P49327 whole entry, looked up): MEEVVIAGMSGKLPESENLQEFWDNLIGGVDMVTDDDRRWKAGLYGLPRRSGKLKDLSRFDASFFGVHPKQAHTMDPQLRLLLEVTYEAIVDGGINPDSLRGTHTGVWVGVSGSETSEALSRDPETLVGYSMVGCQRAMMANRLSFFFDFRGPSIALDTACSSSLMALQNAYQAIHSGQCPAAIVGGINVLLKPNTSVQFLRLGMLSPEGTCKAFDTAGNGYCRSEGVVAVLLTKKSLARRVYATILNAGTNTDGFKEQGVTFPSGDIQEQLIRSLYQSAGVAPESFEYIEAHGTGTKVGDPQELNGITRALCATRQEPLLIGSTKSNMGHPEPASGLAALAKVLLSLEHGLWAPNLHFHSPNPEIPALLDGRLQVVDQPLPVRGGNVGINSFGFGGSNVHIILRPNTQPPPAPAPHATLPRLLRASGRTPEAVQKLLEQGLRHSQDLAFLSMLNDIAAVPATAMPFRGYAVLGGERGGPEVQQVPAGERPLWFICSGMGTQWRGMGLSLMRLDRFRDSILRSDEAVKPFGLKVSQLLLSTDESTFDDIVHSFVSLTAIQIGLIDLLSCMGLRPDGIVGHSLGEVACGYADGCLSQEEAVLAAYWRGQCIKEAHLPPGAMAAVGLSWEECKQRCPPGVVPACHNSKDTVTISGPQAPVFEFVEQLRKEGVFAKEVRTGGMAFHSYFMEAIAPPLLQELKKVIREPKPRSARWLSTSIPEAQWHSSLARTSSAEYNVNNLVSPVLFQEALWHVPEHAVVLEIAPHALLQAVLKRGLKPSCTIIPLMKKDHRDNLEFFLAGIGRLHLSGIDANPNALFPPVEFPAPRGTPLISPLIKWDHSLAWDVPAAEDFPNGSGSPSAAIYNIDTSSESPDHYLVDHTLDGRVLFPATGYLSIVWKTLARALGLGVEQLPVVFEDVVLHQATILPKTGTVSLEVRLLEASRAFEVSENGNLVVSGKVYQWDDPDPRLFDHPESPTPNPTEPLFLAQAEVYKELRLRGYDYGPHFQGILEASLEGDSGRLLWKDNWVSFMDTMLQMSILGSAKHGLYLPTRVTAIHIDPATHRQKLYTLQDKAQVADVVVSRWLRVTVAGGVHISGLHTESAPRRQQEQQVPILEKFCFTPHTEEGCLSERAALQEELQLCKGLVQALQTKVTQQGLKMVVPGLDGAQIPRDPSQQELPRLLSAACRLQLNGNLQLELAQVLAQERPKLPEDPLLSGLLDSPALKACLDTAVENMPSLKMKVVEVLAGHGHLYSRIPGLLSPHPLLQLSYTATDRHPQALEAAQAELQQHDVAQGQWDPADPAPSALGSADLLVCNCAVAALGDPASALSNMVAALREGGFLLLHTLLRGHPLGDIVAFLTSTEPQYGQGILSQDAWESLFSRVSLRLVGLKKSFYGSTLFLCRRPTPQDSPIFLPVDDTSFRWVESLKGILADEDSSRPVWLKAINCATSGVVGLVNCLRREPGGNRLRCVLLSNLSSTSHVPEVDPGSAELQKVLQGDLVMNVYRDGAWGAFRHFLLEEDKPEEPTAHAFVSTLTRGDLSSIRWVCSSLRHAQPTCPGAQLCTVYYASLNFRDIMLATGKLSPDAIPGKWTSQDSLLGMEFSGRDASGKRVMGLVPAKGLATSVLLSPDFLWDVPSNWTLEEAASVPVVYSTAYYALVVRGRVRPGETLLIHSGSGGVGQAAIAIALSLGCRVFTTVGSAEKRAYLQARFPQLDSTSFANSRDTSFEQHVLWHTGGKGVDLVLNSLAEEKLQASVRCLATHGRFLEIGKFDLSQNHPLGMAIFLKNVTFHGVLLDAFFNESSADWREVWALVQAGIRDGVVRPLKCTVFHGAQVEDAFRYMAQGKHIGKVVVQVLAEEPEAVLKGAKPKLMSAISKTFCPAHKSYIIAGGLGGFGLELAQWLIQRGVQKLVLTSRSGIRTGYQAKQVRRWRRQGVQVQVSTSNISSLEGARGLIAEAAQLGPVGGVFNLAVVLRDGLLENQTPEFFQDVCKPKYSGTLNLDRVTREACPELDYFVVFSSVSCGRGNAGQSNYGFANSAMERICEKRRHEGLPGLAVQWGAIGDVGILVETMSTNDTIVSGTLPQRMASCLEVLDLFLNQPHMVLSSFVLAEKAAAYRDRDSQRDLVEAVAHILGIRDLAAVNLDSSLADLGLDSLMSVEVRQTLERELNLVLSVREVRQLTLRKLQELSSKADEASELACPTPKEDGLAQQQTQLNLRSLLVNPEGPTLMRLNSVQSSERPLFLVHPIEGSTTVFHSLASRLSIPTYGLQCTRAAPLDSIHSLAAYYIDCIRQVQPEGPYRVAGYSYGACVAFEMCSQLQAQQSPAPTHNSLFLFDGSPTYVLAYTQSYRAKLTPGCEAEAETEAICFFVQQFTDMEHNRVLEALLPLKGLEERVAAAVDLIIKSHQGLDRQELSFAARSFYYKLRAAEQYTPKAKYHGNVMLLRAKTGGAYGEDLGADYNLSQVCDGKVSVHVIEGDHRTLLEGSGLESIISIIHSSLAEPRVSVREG

Row | Compound | IC50
1 | CCN(CC)S(=O)(=O)c1ccc(-c2csc(Cc3ccccc3OC)n2)cc1 | 5.38 µM
2 | CCN(CC)S(=O)(=O)c1ccc(-c2csc(Cc3cccc(F)c3)n2)cc1 | 1.17 µM
3 | CCc1nc(-c2ccc(S(=O)(=O)N(CC)CC)cc2)cs1 | 51.7 µM
4 | CC(C)c1nc(-c2ccc(S(=O)(=O)N3CCOCC3)cc2)cs1 | 5.8 µM
5 | CS(=O)(=O)N1CCN(C(=O)Cc2ccc(S(=O)(=O)N3CCOCC3)s2)CC1 | > 30 µM (inactive)
6 | O=S(=O)(c1ccc(-c2csc(-c3ccc(F)cc3)n2)cc1)N1CCOCC1 | 0.291 µM
7 | CCN(CC)S(=O)(=O)c1ccc(-c2csc(-c3ccc(Br)cc3C)n2)cc1 | 17.2 µM
8 | CCN(CC)S(=O)(=O)c1ccc(-c2csc(-c3ccc(F)cc3)n2)cc1 | 0.5 µM
9 | CCN(CC)S(=O)(=O)c1ccc(-c2csc(C(C)(C)C)n2)cc1 | 2.6 µM
10 | CC(C)S(=O)(=O)N1CCN(C(=O)Cc2ccc(S(=O)(=O)N3CCOCC3)s2)CC1 | > 30 µM (inactive)
11 | O=C(Cc1ccc(S(=O)(=O)N2CCOCC2)s1)N1CCN(S(=O)(=O)c2ccc(F)cc2)CC1 | inactive
12 | O=C(Cc1ccc(S(=O)(=O)N2CCOCC2)s1)NCc1ccccc1 | > 30 µM (inactive)
13 | O=C(Cc1ccc(S(=O)(=O)N2CCOCC2)s1)N1CCN(S(=O)(=O)c2ccccc2)CC1 | 44.6 µM
14 | CCN(CC)S(=O)(=O)c1ccc(-c2csc(Cc3ccc(F)cc3)n2)cc1 | 0.918 µM
15 | CCN(CC)S(=O)(=O)c1ccc(-c2csc(-c3ccc(Br)cc3)n2)cc1 | 10 µM
16 | CCN(CC)S(=O)(=O)c1ccc(-c2csc(Cc3cccc(I)c3)n2)cc1 | 8.69 µM
17 | CC(C)(C)c1ccc(CNC(=O)Cc2ccc(S(=O)(=O)N3CCOCC3)s2)cc1 | 14.3 µM
18 | CCN(CC)S(=O)(=O)c1ccc(-c2csc(Cc3cccc(C(F)(F)F)c3)n2)cc1 | 3.26 µM
19 | O=C(Cc1ccc(S(=O)(=O)N2CCOCC2)s1)N1CCN(S(=O)(=O)Cc2ccccc2)CC1 | > 30 µM (inactive)
20 | CCN(CC)S(=O)(=O)c1ccc(-c2csc(C(c3ccccc3)c3ccccc3)n2)cc1 | 5.28 µM
21 | CCN(CC)S(=O)(=O)c1ccc(-c2csc(-c3cccc(Br)c3)n2)cc1 | 5.04 µM
22 | CCN(CC)S(=O)(=O)c1ccc(-c2csc(C(C)C)n2)cc1 | 4.2 µM
23 | Cc1cc(C)c(S(=O)(=O)N2CCN(C(=O)Cc3ccc(S(=O)(=O)N4CCOCC4)s3)CC2)c(C)c1 | 33.2 µM
24 | CCN(CC)S(=O)(=O)c1ccc(-c2csc(-c3ccc(Cl)cc3)n2)cc1 | 10 µM
25 | CCN(CC)S(=O)(=O)c1ccc(-c2csc(Cc3ccccc3F)n2)cc1 | 0.631 µM
